Activity calls are given as the source filed them. The calls are words filed in the database; no cut-off is given here.
Tests used:
[1] = system: Human immunodeficiency virus; assay: microbe, parasite or virus in culture; details: Human immunodeficiency virus 1, MT4
Description: Antiviral activity against vesicular stomatitis virus G-pseudotyped Human immunodeficiency virus infected in human MT-4 cells assessed as inhibition of viral replication

[2] = system: Human immunodeficiency virus 1; assay type: functional, organism-based; details: Human immunodeficiency virus 1, 3B, MT4
[3] = system: Human immunodeficiency virus 1; assay type: functional, organism-based; details: NL432, MT4
[4] = molecular target: T1, Human immunodeficiency virus type 1 integrase (Human immunodeficiency virus 1, UniProt Q7ZJM1); assay: Displacement of 20 nM [3H]GSK304649 from Human immunodeficiency virus 1 integrase by scintillation proximity assay
T1 sequence (Q7ZJM1 whole entry): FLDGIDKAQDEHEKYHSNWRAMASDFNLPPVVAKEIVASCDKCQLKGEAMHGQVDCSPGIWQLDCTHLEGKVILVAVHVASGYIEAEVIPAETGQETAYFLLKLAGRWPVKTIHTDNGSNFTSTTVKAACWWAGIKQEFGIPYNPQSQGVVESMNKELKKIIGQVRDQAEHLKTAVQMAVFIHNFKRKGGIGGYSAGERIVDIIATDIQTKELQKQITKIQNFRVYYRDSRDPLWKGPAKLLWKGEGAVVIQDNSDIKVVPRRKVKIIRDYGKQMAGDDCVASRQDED

[5] = system: Human immunodeficiency virus 1; assay type: functional, organism-based; details: NL432, MT4; remark: listed apart in the source
[6] = system: Human immunodeficiency virus 1; assay: Antiviral activity against Human immunodeficiency virus 1 Ba-L infected in human PBMCs assessed as inhibition of viral replication; assay type: functional, organism-based
[7] = system: Human immunodeficiency virus 1; assay type: functional, organism-based; details: NL432, MT4; remark: listed apart in the source
[8] = system: Human immunodeficiency virus 1; assay: Antiviral activity against INI-resistant Human immunodeficiency virus 1 expressing integrase T124A mutant gene infected in human HeLa-CD4 cells after 3 days; assay type: functional
[9] = system: Human immunodeficiency virus 1; assay: Antiviral activity against INI-resistant Human immunodeficiency virus 1 expressing integrase E92Q mutant gene infected in human HeLa-CD4 cells after 3 days; assay type: functional
[10] = system: Human immunodeficiency virus 1; assay: Antiviral activity against INI-resistant Human immunodeficiency virus 1 expressing integrase T66I mutant gene infected in human HeLa-CD4 cells after 3 days; assay type: functional
[11] = system: Human immunodeficiency virus 1; assay: Antiviral activity against INI-resistant Human immunodeficiency virus 1 expressing integrase T66K mutant gene infected in human HeLa-CD4 cells after 3 days; assay type: functional, organism-based
[12] = molecular target: T1, Human immunodeficiency virus type 1 integrase; assay: Inhibition of Human immunodeficiency virus 1 integrase by strand transfer scintillation proximity assay
[13] = system: Human immunodeficiency virus 1; assay: Antiviral activity against RTI-resistant Human immunodeficiency virus 1; assay type: functional, organism-based
[14] = system: Human immunodeficiency virus 1; assay: Antiviral activity against INI-resistant Human immunodeficiency virus 1 expressing integrase N155S mutant gene infected in human HeLa-CD4 cells after 3 days; assay type: functional, organism-based
[15] = system: Human immunodeficiency virus 1; assay: Antiviral activity against INI-resistant Human immunodeficiency virus 1 expressing integrase P145S mutant gene infected in human HeLa-CD4 cells after 3 days; assay type: functional
[16] = system: Human immunodeficiency virus 1; assay: Antiviral activity against PI-resistant Human immunodeficiency virus 1; assay type: functional, organism-based
[17] = molecular target: T1, Human immunodeficiency virus type 1 integrase; assay: Displacement of [3H]GSK304649 from Human immunodeficiency virus 1 integrase by scintillation proximity assay
[18] = system: Human immunodeficiency virus 1; assay: Antiviral activity against INI-resistant Human immunodeficiency virus 1 expressing integrase Q148R mutant gene infected in human HeLa-CD4 cells after 3 days; assay type: functional, organism-based
[19] = system: Human immunodeficiency virus 1; assay: Antiviral activity against INI-resistant Human immunodeficiency virus 1 expressing integrase Q148K mutant gene infected in human HeLa-CD4 cells after 3 days; assay type: functional, organism-based
[20] = system: Human immunodeficiency virus 1; assay: Antiviral activity against INI-resistant Human immunodeficiency virus 1 expressing integrase F121Y mutant gene infected in human HeLa-CD4 cells after 3 days; assay type: functional, organism-based
[21] = system: Human immunodeficiency virus 1; assay: Antiviral activity against Human immunodeficiency virus 1 Ba-L infected in human PBMCs assessed as inhibition of viral replication in presence of human serum; assay type: functional, organism-based
[22] = system: Human immunodeficiency virus 1; assay: Antiviral activity against INI-resistant Human immunodeficiency virus 1 expressing integrase M154I mutant gene infected in human HeLa-CD4 cells after 3 days; assay type: functional
[23] = system: Human immunodeficiency virus 1; assay: Antiviral activity against INI-resistant Human immunodeficiency virus 1 expressing integrase S153Y mutant gene infected in human HeLa-CD4 cells after 3 days; assay type: functional
[24] = system: Human immunodeficiency virus 1; assay: Antiviral activity against INI-resistant Human immunodeficiency virus 1 expressing integrase Q146R mutant gene infected in human HeLa-CD4 cells after 3 days; assay type: functional

| Structure (SMILES) | EC50 [1] [nM] | EC50 [2] [nM] | Activity [3] | IC50 [4] [nM] | Activity [5] | EC50 [6] [nM] | Activity [7] | other results |
| --- | --- | --- | --- | --- | --- | --- | --- | --- |
| O=C(NCc1ccc(F)cc1)c1nc(N2CCCCS2(=O)=O)c2cccnc2c1O | 2.2 | 11 | Dose-dependent effect | 13 | inactive | 3 | Dose-dependent effect | Kd [4]: 3.3 nM |
| COc1cc2c(cc1Cc1cccc(Cl)c1F)c(=O)c(C(=O)O)cn2[C@H](CO)C(C)C | 1 | 2 |  |  |  | 2 |  |  |
| Cc1nnc(C(=O)NC(C)(C)c2nc(C(=O)NCc3ccc(F)cc3)c(O)c(=O)n2C)o1 | 2 | 1.8 |  |  |  | 2 |  |  |
| Cn1c(=O)c(C(=O)NCCO)c(O)c2ncc(Cc3ccc(F)cc3)cc21 [GSK-364735] | 1.7 | 5 | Dose-dependent effect | 11 | inactive | 2 | Dose-dependent effect | fold change (FC) [8]: 1; fold change (FC) [9]: 3.7; fold change (FC) [10]: 1.2; Activity [11]: inactive; IC50 [12]: 7.8 nM; IC50 [13]: 2.2 nM; Activity [14]: inactive; fold change (FC) [15]: 1.4; IC50 [16]: 2 nM; Kd [17]: 26 nM; Activity [18]: inactive; Activity [19]: inactive; Activity [20]: inactive; EC50 [21]: 42 nM; fold change (FC) [22]: 0.8; fold change (FC) [23]: 1.4; fold change (FC) [24]: 1.7 |
| O=C1Nc2ccc(Cl)cc2[C@@](C#CC2CC2)(C(F)(F)F)O1 |  |  | Dose-dependent effect |  | inactive |  | Dose-dependent effect |  |

— ChEMBL document CHEMBL1255253, “The naphthyridinone GSK364735 is a novel, potent human immunodeficiency virus type 1 integrase inhibitor and antiretroviral” (Antimicrob Agents Chemother, 2008)
